Test results reported in US8658655B2, “Inhibition of activated cdc42-associated kinase 1” (Fox Chase Cancer Center, priority 2011, dated 2014).
Entries after “also recorded” stand apart in the source; their conditions may differ. One block for each compound: values may come before it.

Legend:
[1] = test system: Ack1 autophosphorylation (Tyr284); assay: Ack1 autophosphorylation in HEK293 cells (Western blot phospho-Ack1); assay type: cell-based; conditions: HEK293 cells expressing Ack1
Text: (§1) Thus, this Example proposed derivatives of compound 1 that inhibit Ack1 in the cellular context while retaining its target specificity.

Ack1 [2] = molecular target: T1, Ack1 (Homo sapiens, UniProt Q07912); assay: Ack1 dose-response radiometric peptide kinase assay; assay type: biochemical
Method: 40 ng of recombinant Ack1 was incubated with saturating quantities of peptide substrate ([…] (SEQ ID NO:1) and in the presence of a compound in Ack1 kinase buffer (20 mM Tris pH 7.4, 10 mM MgCl2, 0.1 mM NaVO4, 0.5 mM dithiothreitol). [^32P]-γ-ATP was added in a total concentration of 10 μM ATP to initiate the reaction. Following 30 minute incubation at 30° C., phosphorylated peptide substrate was captured by spotting the reaction on P81 cationic filter paper and unincorporated [^32P]-γ-ATP was removed by washing in a solution of phosphoric acid. Phosphorylated peptide was then quantified by autoradiography or by Phosphorlmager analysis or by scintillation counting.
as §1
Target sequence in this assay (Q07912 whole entry): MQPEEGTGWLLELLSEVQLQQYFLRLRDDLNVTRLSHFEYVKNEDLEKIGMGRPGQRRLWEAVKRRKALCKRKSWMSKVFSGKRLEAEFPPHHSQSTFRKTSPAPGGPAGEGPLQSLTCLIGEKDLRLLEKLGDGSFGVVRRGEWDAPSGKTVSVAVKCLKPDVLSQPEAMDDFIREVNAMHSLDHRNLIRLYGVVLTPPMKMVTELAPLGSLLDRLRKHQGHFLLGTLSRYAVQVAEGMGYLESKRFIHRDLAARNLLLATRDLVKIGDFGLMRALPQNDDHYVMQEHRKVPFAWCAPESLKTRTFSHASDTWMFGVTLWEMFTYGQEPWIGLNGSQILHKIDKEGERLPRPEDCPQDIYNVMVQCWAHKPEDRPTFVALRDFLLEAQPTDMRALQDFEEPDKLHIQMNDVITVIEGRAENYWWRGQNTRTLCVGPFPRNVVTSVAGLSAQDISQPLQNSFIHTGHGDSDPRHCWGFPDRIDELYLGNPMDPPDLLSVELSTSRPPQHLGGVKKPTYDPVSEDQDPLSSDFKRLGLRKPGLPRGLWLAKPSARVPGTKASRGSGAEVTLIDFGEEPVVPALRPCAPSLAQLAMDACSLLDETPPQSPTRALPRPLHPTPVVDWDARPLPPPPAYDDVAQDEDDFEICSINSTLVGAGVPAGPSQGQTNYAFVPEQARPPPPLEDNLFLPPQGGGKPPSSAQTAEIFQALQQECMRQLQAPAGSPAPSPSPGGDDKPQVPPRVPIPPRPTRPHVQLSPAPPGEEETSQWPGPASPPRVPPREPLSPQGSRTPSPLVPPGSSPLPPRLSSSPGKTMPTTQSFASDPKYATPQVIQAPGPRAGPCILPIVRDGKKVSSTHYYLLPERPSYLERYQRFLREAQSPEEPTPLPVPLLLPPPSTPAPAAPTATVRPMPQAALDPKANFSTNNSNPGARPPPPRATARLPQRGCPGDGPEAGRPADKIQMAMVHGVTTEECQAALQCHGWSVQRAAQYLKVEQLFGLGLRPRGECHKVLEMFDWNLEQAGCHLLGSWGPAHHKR

Aurora B = Aurora B (Homo sapiens, UniProt Q96GD4); assay: Kinase panel screen at 500 nM: Aurora B; assay type: biochemical; conditions: 500 nM compound, 10 μM ATP
Text: (§2) Disparate replicates were eliminated from the analysis.

[3] = test system: panel of 300 protein kinases; assay: Kinase selectivity across panel of 300 kinases (Gini coefficient); assay type: biochemical, human; conditions: 500 nM
Method: as §2
The data were analyzed for compounds that inhibit Ack1. […] Inhibitor selectivity was quantitatively assessed using the Gini coefficient (Piotr P et al. (2007) J. Med. Chem., 50:5773-9; and, Lynette A et al. (2009) J. Chem. Biol. 2:131-51).

Aurora [4] = conditions: Heron et al. 2006; cited from earlier work
Aurora [5] = conditions: Heron et al. 2006; cited from earlier work; remark: listed apart in the source
Ack1 [6] = molecular target: T1, Ack1; assay: Kinase panel screen at 500 nM: Ack1; assay type: biochemical; parameters: only the kinase domain of Ack1 and a limited additional region C-terminal (amino acids 110-476); conditions: 500 nM compound, 10 μM ATP; for inhibition at 0.5 µM: duplicate, read-out: inhibition of Ack1 catalytic activity
Target sequence in this assay (Q07912 110-476): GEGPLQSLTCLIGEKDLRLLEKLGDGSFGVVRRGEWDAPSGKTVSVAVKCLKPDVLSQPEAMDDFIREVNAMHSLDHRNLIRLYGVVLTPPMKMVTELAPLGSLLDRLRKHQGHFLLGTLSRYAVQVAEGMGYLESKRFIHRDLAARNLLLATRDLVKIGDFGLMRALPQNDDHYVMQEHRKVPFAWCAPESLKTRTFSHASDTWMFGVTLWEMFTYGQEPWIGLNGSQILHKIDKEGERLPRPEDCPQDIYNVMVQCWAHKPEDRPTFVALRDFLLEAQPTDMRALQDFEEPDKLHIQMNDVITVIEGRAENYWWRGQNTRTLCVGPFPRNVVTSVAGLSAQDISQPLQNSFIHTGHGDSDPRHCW
Method: Each inhibitor was tested in duplicate at 500 nM against each kinase using radiolabeled ATP (10 μM total ATP) and a peptide or protein substrate.

[7] = molecular target: non-receptor tyrosine kinase BRK (Homo sapiens, UniProt Q13882); assay: Kinase panel screen at 500 nM: BRK; assay type: biochemical; conditions: 500 nM compound, 10 μM ATP
Text: as §2

JAK1/2 = assay: Kinase panel screen at 500 nM: JAK1/2; assay type: biochemical, human; conditions: 500 nM compound, 10 μM ATP
Text: (§3) To directly test the kinase selectivity of a large number of established kinase inhibitors, high throughput kinase assays were employed against a panel of ^˜300 recombinant human protein kinases. An economical method based on conventional filter-binding assays was used at a nanoliter scale using radiolabeled ATP that directly measures kinase catalytic activity toward a polypeptide and/or protein substrate. […] The library of inhibitors comprises 160 pure compounds known to inhibit kinases representing all major protein kinase families, as well as a limited number of compounds that were not developed to target protein kinases (FIG. 1A).
(§4) The kinase panel tested represents all major human protein kinase. For simplicity, all compounds were tested at a concentration of 0.5 μM in the presence of 10 μM ATP.
(§5) Each kinase-inhibitor pair was tested in duplicate and results were expressed as percent remaining kinase activity compared to solvent (DMSO) control reactions. Disparate replicates were eliminated from the analysis.
(§6) As described above, a large-scale parallel screening of a collection of 160 known kinase inhibitors was conducted against a panel of 294-300 recombinant human protein kinases. Goals included the identification of novel inhibitor scaffolds for new kinase targets and the revelation of the target specificities of this panel of research compounds. […]

RET = RET (Homo sapiens, UniProt P07949); assay: Kinase panel screen at 500 nM: RET; assay type: biochemical; conditions: 500 nM compound, 10 μM ATP
Text: as §2

IKK-2 = molecular target: T2, IKK-2 (Homo sapiens, UniProt O14920); assay: Kinase panel screen at 500 nM: IKK-2; assay type: biochemical; conditions: 500 nM compound, 10 μM ATP
T2 sequence (O14920 1-756): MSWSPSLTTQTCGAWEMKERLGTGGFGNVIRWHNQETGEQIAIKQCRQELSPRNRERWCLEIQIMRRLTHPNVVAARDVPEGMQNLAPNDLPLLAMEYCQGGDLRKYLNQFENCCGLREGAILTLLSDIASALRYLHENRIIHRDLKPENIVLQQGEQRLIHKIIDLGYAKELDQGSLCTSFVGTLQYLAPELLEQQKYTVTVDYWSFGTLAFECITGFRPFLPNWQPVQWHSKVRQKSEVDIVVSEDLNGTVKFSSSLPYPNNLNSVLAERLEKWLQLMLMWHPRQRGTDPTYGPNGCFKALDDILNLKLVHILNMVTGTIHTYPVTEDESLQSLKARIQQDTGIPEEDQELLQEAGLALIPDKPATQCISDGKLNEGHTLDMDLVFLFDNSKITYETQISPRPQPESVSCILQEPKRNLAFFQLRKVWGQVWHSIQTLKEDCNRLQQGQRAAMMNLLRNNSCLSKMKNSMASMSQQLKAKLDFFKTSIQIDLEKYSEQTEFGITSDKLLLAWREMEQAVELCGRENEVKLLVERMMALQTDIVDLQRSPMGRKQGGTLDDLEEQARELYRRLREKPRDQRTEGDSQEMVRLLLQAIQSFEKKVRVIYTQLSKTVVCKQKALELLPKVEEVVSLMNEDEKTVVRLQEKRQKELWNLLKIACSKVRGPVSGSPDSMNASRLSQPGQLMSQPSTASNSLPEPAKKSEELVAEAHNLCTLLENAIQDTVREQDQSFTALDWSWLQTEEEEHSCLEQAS
Text: as §3, §4, §5, §6

Tyk2 = Tyk2 (Homo sapiens, UniProt P29597); assay: Kinase panel screen at 500 nM: Tyk2; assay type: biochemical; conditions: 500 nM compound, 10 μM ATP
Text: as §2

FLT3 = molecular target: T3, FLT3 (Homo sapiens, UniProt P36888); assay: Kinase panel screen at 500 nM: FLT3; assay type: biochemical; conditions: 500 nM compound, 10 μM ATP
T3 sequence (P36888 27-993): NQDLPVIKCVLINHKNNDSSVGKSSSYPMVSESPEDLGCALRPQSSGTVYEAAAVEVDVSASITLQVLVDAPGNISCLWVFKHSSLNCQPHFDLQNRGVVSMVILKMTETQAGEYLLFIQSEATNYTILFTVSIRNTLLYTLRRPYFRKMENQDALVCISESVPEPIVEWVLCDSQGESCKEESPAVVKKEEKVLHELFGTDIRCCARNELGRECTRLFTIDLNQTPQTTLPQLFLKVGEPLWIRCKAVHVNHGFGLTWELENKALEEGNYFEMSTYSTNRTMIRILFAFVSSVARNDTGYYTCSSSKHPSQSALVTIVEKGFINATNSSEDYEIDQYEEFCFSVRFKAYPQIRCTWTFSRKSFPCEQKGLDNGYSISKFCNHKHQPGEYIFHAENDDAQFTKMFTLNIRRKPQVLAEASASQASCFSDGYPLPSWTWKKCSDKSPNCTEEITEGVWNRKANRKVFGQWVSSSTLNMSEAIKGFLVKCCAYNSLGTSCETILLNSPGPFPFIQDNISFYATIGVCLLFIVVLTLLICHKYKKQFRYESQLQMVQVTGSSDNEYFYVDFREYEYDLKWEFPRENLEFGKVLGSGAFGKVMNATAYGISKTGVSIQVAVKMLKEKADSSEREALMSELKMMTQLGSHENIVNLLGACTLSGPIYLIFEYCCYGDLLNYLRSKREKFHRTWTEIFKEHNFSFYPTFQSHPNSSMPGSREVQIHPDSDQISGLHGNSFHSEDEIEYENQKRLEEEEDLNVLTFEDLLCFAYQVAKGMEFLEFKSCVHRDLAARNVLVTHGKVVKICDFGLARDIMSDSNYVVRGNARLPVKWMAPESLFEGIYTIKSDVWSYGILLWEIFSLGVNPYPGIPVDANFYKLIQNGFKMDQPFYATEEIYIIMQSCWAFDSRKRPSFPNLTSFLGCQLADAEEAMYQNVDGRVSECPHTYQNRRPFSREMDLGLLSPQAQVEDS
Text: as §2

Chain of RET (P07949 29-1114): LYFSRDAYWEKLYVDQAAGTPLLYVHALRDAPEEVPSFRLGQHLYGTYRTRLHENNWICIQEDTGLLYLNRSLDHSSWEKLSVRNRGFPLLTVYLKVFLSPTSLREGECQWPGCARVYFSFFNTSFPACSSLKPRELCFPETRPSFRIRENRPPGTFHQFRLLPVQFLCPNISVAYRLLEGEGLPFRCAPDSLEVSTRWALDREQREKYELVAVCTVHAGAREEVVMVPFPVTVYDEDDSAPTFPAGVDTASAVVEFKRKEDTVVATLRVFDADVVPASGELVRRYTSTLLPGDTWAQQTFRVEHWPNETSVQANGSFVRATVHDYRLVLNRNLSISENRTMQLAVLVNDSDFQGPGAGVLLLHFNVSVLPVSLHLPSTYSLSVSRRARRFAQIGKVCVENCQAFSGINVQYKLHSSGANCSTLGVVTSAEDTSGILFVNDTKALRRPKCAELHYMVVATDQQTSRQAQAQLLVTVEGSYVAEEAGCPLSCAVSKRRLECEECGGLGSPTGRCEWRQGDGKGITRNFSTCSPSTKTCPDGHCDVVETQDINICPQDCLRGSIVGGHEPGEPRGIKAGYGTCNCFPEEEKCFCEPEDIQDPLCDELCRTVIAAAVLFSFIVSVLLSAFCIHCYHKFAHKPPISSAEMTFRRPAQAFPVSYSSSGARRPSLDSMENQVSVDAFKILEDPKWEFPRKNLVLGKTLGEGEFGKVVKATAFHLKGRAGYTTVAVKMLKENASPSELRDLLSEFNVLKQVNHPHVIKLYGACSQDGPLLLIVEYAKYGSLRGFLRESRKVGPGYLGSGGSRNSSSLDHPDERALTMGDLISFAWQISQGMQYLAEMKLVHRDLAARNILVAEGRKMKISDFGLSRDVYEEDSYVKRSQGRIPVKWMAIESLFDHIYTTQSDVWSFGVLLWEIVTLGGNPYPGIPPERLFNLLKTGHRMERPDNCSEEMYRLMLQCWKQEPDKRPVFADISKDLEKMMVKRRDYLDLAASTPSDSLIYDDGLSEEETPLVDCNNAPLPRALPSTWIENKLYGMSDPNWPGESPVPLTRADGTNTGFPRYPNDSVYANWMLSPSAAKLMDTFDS
Chain of non-receptor tyrosine kinase BRK (Q13882 whole entry): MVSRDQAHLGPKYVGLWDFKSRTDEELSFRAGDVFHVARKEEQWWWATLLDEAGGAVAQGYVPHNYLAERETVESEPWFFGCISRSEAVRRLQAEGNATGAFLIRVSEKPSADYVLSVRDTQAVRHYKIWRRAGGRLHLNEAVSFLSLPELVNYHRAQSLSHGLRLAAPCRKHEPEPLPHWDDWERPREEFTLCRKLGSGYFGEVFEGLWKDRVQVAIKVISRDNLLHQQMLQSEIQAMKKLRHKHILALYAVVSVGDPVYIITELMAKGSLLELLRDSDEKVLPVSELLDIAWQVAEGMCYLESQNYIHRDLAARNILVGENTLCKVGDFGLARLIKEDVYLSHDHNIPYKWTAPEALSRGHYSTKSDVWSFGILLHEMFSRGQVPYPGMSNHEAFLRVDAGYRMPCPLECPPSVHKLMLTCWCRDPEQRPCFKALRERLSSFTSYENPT
Chain of Aurora B (Q96GD4 whole entry): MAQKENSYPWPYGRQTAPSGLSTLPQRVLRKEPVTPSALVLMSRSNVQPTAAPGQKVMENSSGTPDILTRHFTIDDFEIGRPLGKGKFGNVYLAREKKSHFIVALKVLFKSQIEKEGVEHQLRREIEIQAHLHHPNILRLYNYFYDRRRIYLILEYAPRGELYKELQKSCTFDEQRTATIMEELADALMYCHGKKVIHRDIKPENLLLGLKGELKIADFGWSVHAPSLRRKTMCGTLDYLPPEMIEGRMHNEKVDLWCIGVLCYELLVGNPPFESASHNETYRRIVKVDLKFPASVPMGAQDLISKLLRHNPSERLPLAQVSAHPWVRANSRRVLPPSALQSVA
Chain of Tyk2 (P29597 whole entry): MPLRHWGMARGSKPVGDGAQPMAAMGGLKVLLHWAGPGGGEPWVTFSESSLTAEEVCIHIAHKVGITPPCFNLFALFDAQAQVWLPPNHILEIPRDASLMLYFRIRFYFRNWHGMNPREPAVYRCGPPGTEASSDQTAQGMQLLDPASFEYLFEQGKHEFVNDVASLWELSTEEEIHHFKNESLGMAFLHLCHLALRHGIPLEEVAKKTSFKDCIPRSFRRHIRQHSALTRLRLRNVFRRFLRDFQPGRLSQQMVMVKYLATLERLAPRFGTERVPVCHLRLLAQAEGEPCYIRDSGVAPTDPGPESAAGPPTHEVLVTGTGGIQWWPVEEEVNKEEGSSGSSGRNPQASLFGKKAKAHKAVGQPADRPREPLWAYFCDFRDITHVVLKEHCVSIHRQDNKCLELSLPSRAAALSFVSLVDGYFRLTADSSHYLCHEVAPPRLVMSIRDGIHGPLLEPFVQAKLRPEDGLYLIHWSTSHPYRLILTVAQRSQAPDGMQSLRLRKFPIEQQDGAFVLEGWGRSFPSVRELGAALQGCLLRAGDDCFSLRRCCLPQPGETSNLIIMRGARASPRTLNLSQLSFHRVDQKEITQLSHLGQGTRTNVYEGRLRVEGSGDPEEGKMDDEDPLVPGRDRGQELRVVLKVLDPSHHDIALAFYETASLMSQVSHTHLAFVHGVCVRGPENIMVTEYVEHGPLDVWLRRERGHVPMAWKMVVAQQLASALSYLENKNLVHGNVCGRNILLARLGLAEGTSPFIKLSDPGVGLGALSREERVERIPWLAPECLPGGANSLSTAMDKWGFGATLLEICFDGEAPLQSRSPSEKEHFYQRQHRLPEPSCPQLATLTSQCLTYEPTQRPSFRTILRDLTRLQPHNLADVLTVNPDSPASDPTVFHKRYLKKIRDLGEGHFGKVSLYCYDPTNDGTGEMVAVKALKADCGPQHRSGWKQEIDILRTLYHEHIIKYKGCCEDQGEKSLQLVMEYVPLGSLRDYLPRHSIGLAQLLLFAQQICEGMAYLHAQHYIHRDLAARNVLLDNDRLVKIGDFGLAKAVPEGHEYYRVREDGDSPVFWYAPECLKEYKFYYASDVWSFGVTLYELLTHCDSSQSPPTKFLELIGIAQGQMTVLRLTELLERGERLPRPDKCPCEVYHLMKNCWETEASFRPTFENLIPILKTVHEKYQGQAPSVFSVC

SMILES: COc1cc2c(Nc3ccc(NC(=O)c4ccccc4)cc3)ncnc2cc1OCCCN1CCOCC1 [Compound 1.1]
inhibition of Ack1 autophosphorylation in cells [1]: potently inhibited Ack1 autophosphorylation in cells; also recorded: inhibits Ack1 in cells | in vitro Ack1 activity compared to compound 1 (Ack1 [2]; data not shown): comparable in vitro activity to compound 1

inhibition at 0.5 µM (Aurora B): 75% | kinase selectivity for Ack1 over other kinases [3]: unusually selective | inhibition at 0.5 µM (Ack1 [6]): 95% | IC50 (Ack1 [2]; dose-response, 10 μM ATP, read-out: IC50 against Ack1 in vitro): 5 nM | inhibition at 0.5 µM [7]: > 50%
SMILES: COc1cc2ncnc(Nc3ccc(NC(=O)c4ccccc4)cc3)c2cc1OC [Compound 1]
inhibition of Ack1 autophosphorylation in cells [1]: did not reduce Ack1 autophosphorylation | in vitro activity against Aurora (Aurora [4]): good in vitro activity | cellular efficacy against Aurora (Aurora [5]): poor cellular efficacy

inhibition of catalytic activity of JAK1/2 (JAK1/2): partial inhibition | inhibition of catalytic activity of RET (RET): partial inhibition | inhibition at 0.5 µM (IKK-2): 91% | inhibition of catalytic activity of Tyk2 (Tyk2): partial inhibition | inhibition at 0.5 µM (Ack1 [6]): 94% | inhibition of catalytic activity of FLT3 (FLT3): partial inhibition
SMILES: NC(=O)Nc1sc(-c2ccc(F)cc2)cc1C(N)=O [Compound 3]

SMILES: CN[C@@H]1C[C@H]2O[C@@](C)([C@@H]1OC)n1c3ccccc3c3c4c(c5c6ccccc6n2c5c31)C(=O)NC4 [staurosporine, reference compound]
inhibition of Ack1 in the screen (Ack1 [6]): inhibited Ack1 in addition to many other kinases
